The record followed here is patent US9249180B2, “C-3 alkyl and alkenyl modified betulinic acid derivatives” (priority 2013, dated 2016).

The first experiment has as its system recombinant NL4-3 virus (Renilla luciferase in nef, Gag P373S; NLRluc) in MT-2 cells. Put plainly: HIV Cell Culture Assay (luciferase reporter, antiviral activity). As to conditions: MT-2 cells infected for 4-5 days with NLRluc recombinants, serial dilutions of the inhibitor. It is filed as cell-based. The method, then:
HIV Cell Culture Assay—MT-2 cells and 293T cells were obtained from the NIH AIDS Research and Reference Reagent Program. MT-2 cells were propagated in RPMI 1640 media supplemented with 10% heat inactivated fetal bovine serum, […]. The 293T cells were propagated in DMEM media supplemented with 10% heat inactivated fetal bovine serum (FBS), 100 units/ml penicillin G and 100 μg/ml streptomycin. The proviral DNA clone of NL4-3 was obtained from the NIH AIDS Research and Reference Reagent Program. A recombinant NL4-3 virus, in which a section of the nef gene from NL4-3 was replaced with the Renilla luciferase gene, was used as a reference virus. In addition, residue Gag P373 was converted to P373S. Briefly, the recombinant virus was prepared by transfection of the altered proviral clone of NL4-3. Transfections were performed in 293T cells using LipofectAMINE PLUS from Invitrogen (Carlsbad, Calif.), according to manufacturer's instruction. The virus was titered in MT-2 cells using luciferase enzyme activity as a marker. Luciferase was quantitated using the Dual Luciferase kit from Promega (Madison, Wis.), with modifications to the manufacturer's protocol. The diluted Passive Lysis solution was pre-mixed with the re-suspended Luciferase Assay Reagent and the re-suspended Stop & Glo Substrate (2:1:1 ratio). Fifty (50) μL of the mixture was added to each aspirated well on assay plates and luciferase activity was measured immediately on a Wallac TriLux (Perkin-Elmer). Antiviral activities of inhibitors toward the recombinant virus were quantified by measuring luciferase activity in cells infected for 4-5 days with NLRluc recombinants in the presence serial dilutions of the inhibitor.
Usually EC50 stands for the concentration at which the effect is half-maximal. In the case of `C=C(C)[C@@H]1CC[C@]2(NCCN3CCS(=O)(=O)CC3)CC[C@]3(C)[C@H](CC[C@@H]4[C@@]5(C)CC=C(CC6CCCC(C(=O)O)C6)C(C)(C)[C@@H]5CC[C@]43C)[C@@H]12` (single isomer, unassigned) [Example 3], the half-maximal effective concentration (EC50) worked out at 1.72 nM.

Staying with this experiment, now noted: Renilla, NL43, MT-2 cells infected for 4-5 days with NLRluc recombinants, serial dilutions of the inhibitor.
As to `C=C(C)[C@@H]1CC[C@]2(NCCN3CCS(=O)(=O)CC3)CC[C@]3(C)[C@H](CC[C@@H]4[C@@]5(C)CC=C(/C=C/C6CC6(NC(=O)OC(C)(C)C)C(=O)O)C(C)(C)[C@@H]5CC[C@]43C)[C@@H]12` (stereo partly drawn) [Example B2, 1-((tert-butoxycarbonyl)amino)-2-((E)-2-((1R,3aS,5aR,5bR,7aR,11aS,11bR,13aR,13bR)-3a-((2-(1,1-dioxidothiomorpholino)ethyl)amino)-5a,5b,8,8,11a-pentamethyl-1-(prop-1-en-2-yl)-2,3,3a,4,5,5a,5b,6,7,7a,8,11,11a,11b,12,13,13a,13b-octadecahydro-1H-cyclopenta[a]chrysen-9-yl)vinyl)cyclopropanecarboxylic acid], the EC50 came to 40 nM.
As to `C=C(C)[C@@H]1CC[C@]2(NCCN3CCS(=O)(=O)CC3)CC[C@]3(C)[C@H](CC[C@@H]4[C@@]5(C)CC=C(CCC(C)(C)CC(=O)NS(C)(=O)=O)C(C)(C)[C@@H]5CC[C@]43C)[C@@H]12` [Example 15, 5-((1R,3aS,5aR,5bR,7aR,11aS,11bR,13aR,13bR)-3a-((2-(1,1-dioxidothiomorpholino)ethyl)amino)-5a,5b,8,8,11a-pentamethyl-1-(prop-1-en-2-yl)-2,3,3a,4,5,5a,5b,6,7,7a,8,11,11a,11b,12,13,13a,13b-octadecahydro-1H-cyclopenta[a]chrysen-9-yl)-3,3-dimethyl-N-(methylsulfonyl)pentanamide], the EC50 is 1.6 nM.
Still for that read-out and setting: to `C=C(C)[C@@H]1CC[C@]2(NCCN3CCC(S(C)(=O)=O)CC3)CC[C@]3(C)[C@H](CC[C@@H]4[C@@]5(C)CC=C(C=C6CC(C(=O)O)C6)C(C)(C)[C@@H]5CC[C@]43C)[C@@H]12` (stereo partly drawn) [Example B4, 3-(((1R,3aS,5aR,5bR,7aR,11aS,11bR,13aR,13bR)-5a,5b,8,8,11a-pentamethyl-3a-((2-(4-(methylsulfonyl)piperidin-1-yl)ethyl)amino)-1-(prop-1-en-2-yl)-2,3,3a,4,5,5a,5b,6,7,7a,8,11,11a,11b,12,13,13a,13b-octadecahydro-1H-cyclopenta[a]chrysen-9-yl)methylene)cyclobutanecarboxylic acid] belongs 0.6 nM.
Same read-out and setting: to `C=C(C)[C@@H]1CC[C@]2(NCCN3CCC(S(C)(=O)=O)CC3)CC[C@]3(C)[C@H](CC[C@@H]4[C@@]5(C)CC=C(C=C6CCC(F)(C(=O)O)CC6)C(C)(C)[C@@H]5CC[C@]43C)[C@@H]12` (mixture of isomers) [Example B3, 1-fluoro-4-(((1R,3aS,5aR,5bR,7aR,11aS,11bR,13aR,13bR)-5a,5b,8,8,11a-pentamethyl-3a-((2-(4-(methylsulfonyl)piperidin-1-yl)ethyl)amino)-1-(prop-1-en-2-yl)-2,3,3a,4,5,5a,5b,6,7,7a,8,11,11a,11b,12,13,13a,13b-octadecahydro-1H-cyclopenta[a]chrysen-9-yl)methylene)cyclohexanecarboxylic acid] belongs 4.49 nM; to `C=C(C)[C@@H]1CC[C@]2(NCCN3CCS(=O)(=O)CC3)CC[C@]3(C)[C@H](CC[C@@H]4[C@@]5(C)CC=C(CC6CCC(C(=O)O)CC6)C(C)(C)[C@@H]5CC[C@]43C)[C@@H]12` (stereo partly drawn) [Example 1, 4-(((1R,3aS,5aR,5bR,7aR,11aS,11bR,13aR,13bR)-3a-((2-(1,1-dioxidothiomorpholino)ethyl)amino)-5a,5b,8,8,11a-pentamethyl-1-(prop-1-en-2-yl)-2,3,3a,4,5,5a,5b,6,7,7a,8,11,11a,11b,12,13,13a,13b-octadecahydro-1H-cyclopenta[a]chrysen-9-yl)methyl)cyclohexanecarboxylic acid], 2.96 nM; to `C=C(C)[C@@H]1CC[C@]2(NCCN3CCS(=O)(=O)CC3)CC[C@]3(C)[C@H](CC[C@@H]4[C@@]5(C)CC=C(CC6CCC(OC)(C(=O)O)CC6)C(C)(C)[C@@H]5CC[C@]43C)[C@@H]12` (stereo partly drawn) [Example 9, 4-(((1R,3aS,5aR,5bR,7aR,11aS,11bR,13aR,13bR)-3a-((2-(1,1-dioxidothiomorpholino)ethyl)amino)-5a,5b,8,8,11a-pentamethyl-1-(prop-1-en-2-yl)-2,3,3a,4,5,5a,5b,6,7,7a,8,11,11a,11b,12,13,13a,13b-octadecahydro-1H-cyclopenta[a]chrysen-9-yl)methyl)-1-methoxycyclohexanecarboxylic acid], 3.7 nM.
In the case of `C=C(C)[C@@H]1CC[C@]2(NCCN3CCS(=O)(=O)CC3)CC[C@]3(C)[C@H](CC[C@@H]4[C@@]5(C)CC=C(CC6CCC(OCC)(C(=O)O)CC6)C(C)(C)[C@@H]5CC[C@]43C)[C@@H]12` (stereo partly drawn) [Example 8, 4-(((1R,3aS,5aR,5bR,7aR,11aS,11bR,13aR,13bR)-3a-((2-(1,1-dioxidothiomorpholino)ethyl)amino)-5a,5b,8,8,11a-pentamethyl-1-(prop-1-en-2-yl)-2,3,3a,4,5,5a,5b,6,7,7a,8,11,11a,11b,12,13,13a,13b-octadecahydro-1H-cyclopenta[a]chrysen-9-yl)methyl)-1-ethoxycyclohexanecarboxylic acid], the EC50 came out at 4.2 nM.
The same measure, in the same setting: the same measure for `C=C(C)[C@@H]1CC[C@]2(NCCN3CCS(=O)(=O)CC3)CC[C@]3(C)[C@H](CC[C@@H]4[C@@]5(C)CC=C(CCCC(=O)O)C(C)(C)[C@@H]5CC[C@]43C)[C@@H]12` [Example 11, 4-((1R,3aS,5aR,5bR,7aR,11aS,11bR,13aR,13bR)-3a-((2-(1,1-dioxidothiomorpholino)ethyl)amino)-5a,5b,8,8,11a-pentamethyl-1-(prop-1-en-2-yl)-2,3,3a,4,5,5a,5b,6,7,7a,8,11,11a,11b,12,13,13a,13b-octadecahydro-1H-cyclopenta[a]chrysen-9-yl)butanoic acid]: 10 nM; for `C=C(C)[C@@H]1CC[C@]2(NCCN3CCS(=O)(=O)CC3)CC[C@]3(C)[C@H](CC[C@@H]4[C@@]5(C)CC=C(CCCCCC(=O)O)C(C)(C)[C@@H]5CC[C@]43C)[C@@H]12` [Example 10, 6-((1R,3aS,5aR,5bR,7aR,11aS,11bR,13aR,13bR)-3a-((2-(1,1-dioxidothiomorpholino)ethyl)amino)-5a,5b,8,8,11a-pentamethyl-1-(prop-1-en-2-yl)-2,3,3a,4,5,5a,5b,6,7,7a,8,11,11a,11b,12,13,13a,13b-octadecahydro-1H-cyclopenta[a]chrysen-9-yl)hexanoic acid]: 3.1 nM.
Same read-out and setting: the same measure for `C=C(C)[C@@H]1CC[C@]2(NCCN3CCS(=O)(=O)CC3)CC[C@]3(C)[C@H](CC[C@@H]4[C@@]5(C)CC=C(CCC(C)(C)CC(=O)NOC)C(C)(C)[C@@H]5CC[C@]43C)[C@@H]12` [Example 13, 5-((1R,3aS,5aR,5bR,7aR,11aS,11bR,13aR,13bR)-3a-((2-(1,1-dioxidothiomorpholino)ethyl)amino)-5a,5b,8,8,11a-pentamethyl-1-(prop-1-en-2-yl)-2,3,3a,4,5,5a,5b,6,7,7a,8,11,11a,11b,12,13,13a,13b-octadecahydro-1H-cyclopenta[a]chrysen-9-yl)-N-methoxy-3,3-dimethylpentanamide]: 30 nM; for `C=C(C)[C@@H]1CC[C@]2(NCCN3CCS(=O)(=O)CC3)CC[C@]3(C)[C@H](CC[C@@H]4[C@@]5(C)CC=C(CC6CCCC(C(=O)O)C6)C(C)(C)[C@@H]5CC[C@]43C)[C@@H]12` (single isomer, unassigned) [Example 2]: 2 nM; for `CC(C)[C@@H]1CC[C@]2(NCCN3CCS(=O)(=O)CC3)CC[C@]3(C)[C@H](CC[C@@H]4[C@@]5(C)CCC(CCCC(C)(C)C(=O)O)C(C)(C)[C@@H]5CC[C@]43C)[C@@H]12` (stereo partly drawn) [Example 17, 5-((1S,3aS,5aR,5bR,7aS,11aS,11bR,13aR,13bR)-3a-((2-(1,1-dioxidothiomorpholino)ethyl)amino)-1-isopropyl-5a,5b,8,8,11a-pentamethylicosahydro-1H-cyclopenta[a]chrysen-9-yl)-2,2-dimethylpentanoic acid]: 7.3 nM.
The same measure, in the same setting: to `CC(C)[C@@H]1CC[C@]2(NCCN3CCS(=O)(=O)CC3)CC[C@]3(C)[C@H](CC[C@@H]4[C@@]5(C)CCC(CCCCC(=O)O)C(C)(C)[C@@H]5CC[C@]43C)[C@@H]12` (stereo partly drawn) [Example 16, 5-((1S,3aS,5aR,5bR,7aS,11aS,11bR,13aR,13bR)-3a-((2-(1,1-dioxidothiomorpholino)ethyl)amino)-1-isopropyl-5a,5b,8,8,11a-pentamethylicosahydro-1H-cyclopenta[a]chrysen-9-yl)pentanoic acid] belongs 1 nM.
